US20110020914A1, “METHODS FOR ENHANCING GROWTH OF ORGANISMS IN AN AQUEOUS GROWTH MEDIUM” (NOVUS INTERNATIONAL INC, priority 2009, published 2011)

How the values were obtained:
Type in all cases: cell-based
[1] = tested on: Chlorella vulgaris; assay: Effect of chelated micronutrients on growth (cell density, spectrophotometer 450 nm) of Chlorella vulgaris; conditions: up to 24 days, vs control
Procedure: To assess the efficacy of chelated micronutrients on the growth of Chlorella vulgaris, a fresh-water green microalgae, the following experiment was conducted. Chlorella vulgaris microalgae were maintained in stock cultures as described in Example 1. The microalgae were inoculated at an initial concentration of about 10^4 cells/ml into 250 ml conical flasks containing 100 ml of an algal growth medium having a composition described in Table 3.
Three different chelated micronutrient compositions were added to the growth medium of the flasks at six different concentrations to each algal culture for final concentrations of 0 mg/ml (control), […], 10^−4 mg/ml, 10^−3 mg/ml and 10^−2 mg/ml. The metal micronutrient compositions tested were Cu-HMTBA (BIOX-C), Zn-HMTBA (BIOX-Z), and Mn-HMTBA (BIOX-M). For each concentration of a particular micronutrient composition, three duplicate flasks were tested.
The flasks containing the added compounds were cultured in a chamber in which the temperature was maintained at 21° C.-25° C. In addition, the chamber provided continuous uniform illumination with a quantum flux of 0.72 10-20 photon/m^2+/−20% in the spectral range of 400-700 nm (8000 flux). The contents of the flasks were shaken, stirred, or aerated during the experiment to facilitate the transfer of CO2 to the microalgae.
Samples from each flask were taken after 2, 7, 12, 15, 18, 21, and 24 days of growth in the flasks and analyzed in quadruplicate to determine the cell density of the microalgae. The cell density was determined using a spectrophotometer at a wavelength setting of 450 nm and using a filtered growth medium sample as a blank. The sample volume analyzed was 100 μL per well.

[2] = tested on: Chlorella vulgaris; assay: Effect of chelated micronutrients on protein content (Coomassie Blue G, 595 nm) of Chlorella vulgaris
Procedure: To assess the efficacy of chelated micronutrients on the protein content of Chlorella vulgaris, a fresh-water green microalgae, the following experiment was conducted. Chlorella vulgaris microalgae colonies were cultured in algal culture media containing added BIOX-C, BIOX-Z, and BIOX-M as described in Example 3.
Samples from each flask were taken after 2, 7, 12, 15, 21, and 30 days of growth in the flasks and analyzed in triplicate to determine the protein content of the microalgae cells. The protein contents of the microalgal colonies were determined by using a spectrophotometer to measure microalgal cells in which the proteins were marked with a dye. 0.04-mL culture samples were gently mixed with 2 ml of Coomassie Blue G dye in a 4 mL plastic cuvette. Cytoplasmic proteins were then measured by measuring the absorbance of the dyed sample at a wavelength of 595 nm using a […].

[3] = tested on: Chlorella vulgaris; assay: Effect of chelated micronutrients on lipid accumulation (Nile Red fluorescence) in Chlorella vulgaris
Procedure: To assess the efficacy of chelated micronutrients on the lipid content of Chlorella vulgaris, a fresh-water green microalgae, the following experiment was conducted. Chlorella vulgaris microalgae colonies were cultured in algal culture media containing added BIOX-C, BIOX-Z, and BIOX-M as described in Example 3. Samples from each flask were taken after 9, 30, and 39 days of growth in the flasks and analyzed in triplicate to determine the lipid content of the microalgae cells. A fluorometric method was used determine cellular lipid accumulation. 4-mL culture samples were mixed with Nile Red (9-diethylamino-5H-benzophenoxazine-5-one) at a 100:1 volume ratio and allowed to stain for about seven minutes. Cytoplasmic lipids were then measured by the florescence intensity using a fluorometer (excitation 475 nm; emission 585 nm). The relative fluorescence for lipid content was obtained after subtraction of both the autofluorescence of algal cells and the self-fluorescence of the Nile Red dye from the uncorrected readings at 585 nm wavelengths.

[4] = tested on: Nitzchia sp. microalgae; assay: Effect of chelated zinc on growth (cell density) of Nitzchia sp. microalgae; conditions: 10^−3 mg/ml, 18 days, vs control
Procedure: To assess the efficacy of HMTBA-chelated zinc (BIOX-Z) on the growth of microalgae from the genus Nitzchia, the following experiment was conducted. Microalgae from the genus Nitzchia was maintained in stock cultures as described in Example 1. The microalgae were inoculated into 1 L flasks and varying amounts of BIOX-Z were added to the flasks as described in Example 1. The Nitzchia cells were grown in the flasks as described in Example 1 for a total of 18 days. Samples were taken from the flasks each day to assess the cell density as described in Example 1.

[5] = tested on: Dunaliella tertiolecta; assay: Effect of chelated zinc on growth (cell density, haemocytometer) of Dunaliella tertiolecta; conditions: cultured with 10^−6 to 10^−2 mg/ml in f/2 medium, 18 days, vs control
Procedure: To assess the efficacy of adding HMTBA-chelated zinc (BIOX-Z) to the growth medium on the growth of the microalgae Dunaliella tertiolecta, the following experiment was conducted. Dunaliella tertiolecta was maintained in stock cultures in 20 ml test tubes at a cell density of about 2.5-5.0×10^4 cells/ml as seed cultures and maintained on a seven-day transfer cycle. The microalgae were inoculated into 1 L Pyrex glass Erlenmeyer flasks containing 250 ml of f/2 growth medium (Guillard 1975).
BIOX-Z was dissolved in distilled water and added at six different concentrations to each algal culture for final concentrations of 0 mg/ml (control), 10^−6 mg/ml, 10^−5 mg/ml, 10^−4 mg/ml, 10^−3 mg/ml and 10^−2 mg/ml. Each of the six test groups included 3 individual flasks.
The D. tertiolecta cells were grown in the flasks at a temperature of about 20° C. for a total of 18 days. Light was supplied to the cultures on a cycle of 12 hours of light and 12 hours of dark, at an intensity of 133-299 uEin/sec/cm^2 using a fluorescent light bulb bank (2-F20T12 Westinghouse cool white, Westinghouse Electric Corp., USA). Five samples from each of the test groups were taken each day, and the cell density of each sample was determined using a haemocytometer.

[6] = 0.000001-0.0001 mg/mL, after thirty days of growth
[7] = 0.001 mg/mL, thirty days of growth
[8] = all concentrations, after 30 days of growth
[9] = all concentrations, through the entire period of growth

Compound	growth of Chlorella vulgaris (cell density) ([1]; 10^−2 mg/mL)	growth of Chlorella vulgaris (cell density) ([1]; 10^−3 mg/mL)	growth of Chlorella vulgaris (cell density) ([1]; 10^−4 mg/mL)	growth of Chlorella vulgaris (cell density) ([1]; 10^−5 mg/mL)	growth of Chlorella vulgaris (cell density) ([1]; 10^−6 mg/mL)	protein content relative to control [2, 6]	protein content relative to control [2, 7]	lipid content of Chlorella vulgaris cells [3, 8]	other results
CSCCC(O)C(=O)[O-].CSCCC(O)C(=O)[O-].[Cu+2] (stereo not shown) [BIOX-C, Cu-HMTBA]	inhibited	no effect	enhanced	enhanced	enhanced	10-12 times the control protein content	about 4.5 times the control protein content	enhanced	protein content of the microalgae cells ([2]; 0.01 mg/mL, vs control cells): inhibited; protein content relative to control ([2]; 10^−4 mg/mL, after thirty days of growth, largest enhancement of all compositions tested): about 12.8 times the control protein content; protein content of Chlorella vulgaris cells ([2]; all concentrations except 0.01 mg/mL, at twelve days of growth or longer): enhanced; enhancement of microalgal lipid content compared with all compositions tested ([3]; 10^−2 mg/mL): largest enhancement; lipid content of Chlorella vulgaris cells ([3]; 10^−2 mg/mL, after 39 days of growth): higher lipid content than the control colony; lipid content of Chlorella vulgaris cells ([3]; 10^−3 mg/mL, after 39 days of growth): higher lipid content than the control colony; lipid content of Chlorella vulgaris cells ([3]; all concentrations, after 9 days of growth): enhanced
CSCCC(O)C(=O)[O-].CSCCC(O)C(=O)[O-].[Mn+2] (stereo not shown) [BIOX-M, Mn-HMTBA]	enhanced	inhibited	enhanced	enhanced	enhanced	10-12 times the control protein content	7-8 times the control protein content	enhanced	protein content relative to control ([2]; 0.01 mg/mL, thirty days of growth): 7-8 times the control protein content; protein content of Chlorella vulgaris colonies ([2]; all concentrations, after 21 days or more of growth): enhanced; lipid content of Chlorella vulgaris colonies ([3]; 10^−5 mg/mL, after 39 days): enhanced to a lesser degree; lipid content of Chlorella vulgaris colonies ([3]; 10^−6 mg/mL, after 39 days): enhanced to a lesser degree; lipid content of Chlorella vulgaris colonies ([3]; concentrations of less than 10^−2 mg/mL, after nine days): enhanced
CSCCC(O)C(=O)[O-].CSCCC(O)C(=O)[O-].[Zn+2] (stereo not shown) [BIOX-Z, Zn-HMTBA]	no effect	enhanced	enhanced	enhanced	enhanced				concentration of Nitzchia cells [4]: enhanced; protein content of Chlorella vulgaris cells, concentration of greatest enhancement ([2]; 10^−5 mg/mL): most enhanced; protein content relative to control ([2]; 10^−5 mg/mL, after 30 days of growth): over twelve times; protein content of Chlorella vulgaris cells [2, 9]: enhanced; concentration of D. tertiolecta cells [5]: enhanced; lipid content of Chlorella vulgaris cells, concentration of greatest enhancement ([3]; 10^−3 mg/mL): most enhanced; lipid content of Chlorella vulgaris cells [3, 9]: enhanced
